Experimental data from patent US20170072024A1, “ANTIMICROBIAL COMPOSITION COMPRISING A CARBOHYDRATE, GLUCOSE OXIDASE AND ZINC OXIDE” (MELIPHARM, priority 2014, published 2017).

Tests used:
[1] = tested on: P. aeruginosa; assay: Bacterial proliferation test, 96 well microplate (OD 450 nm, 24 h); type: cell-based; conditions: positive control = 100% proliferation
Method: (§1) The microbial strains used for the tests are the following bacteria: • P. aeruginosa • S. aureus The tests were conducted on microplates to evaluate the MIC (Minimum Inhibitory Concentration). […] Each well is inoculated with 50 μL of bacterial suspension to be tested in a Muller-Hinton (MH) broth+150 μL of diluted test product solution. […] Each specimen is tested in triplicate. The optical densities (OD) are read a first time at time 0 (T0) at 450 nm. The plates are then incubated for 24 h at 37° C. with agitation. At the end of incubation, the OD is measured again at 450 nm (T24). The proliferation percentage is calculated as follows: Proliferation=(DOT24−DOT0)/(DOT24Control+−DOT0Control+)

[2] = tested on: S. aureus; assay: as above; type: cell-based; conditions: positive control = 100% proliferation
Method: as §1

Compound	proliferation percentage of P aeruginosa ([1]; formula at 1.5% (v/v)) [%]	proliferation percentage of P aeruginosa ([1]; formula at 3% (v/v)) [%]	proliferation percentage of P aeruginosa ([1]; formula at 6% (v/v)) [%]	proliferation percentage of P aeruginosa ([1]; formula at 9% (v/v)) [%]	proliferation percentage of S. aureus ([2]; formula at 1.5% (v/v)) [%]	proliferation percentage of S. aureus ([2]; formula at 3% (v/v)) [%]	proliferation percentage of S. aureus ([2]; formula at 6% (v/v)) [%]	proliferation percentage of S. aureus ([2]; formula at 9% (v/v)) [%]
glucose oxidase [Formula 8]	96	96	91	86	81	72	54	46
O=C[C@H](O)[C@@H](O)[C@H](O)[C@H](O)CO [Formula 9, glucose]	100	206	206	113	96	86	83	72
